One assay concerns the target T1, NTCP (Homo sapiens, UniProt Q14973).
T1 sequence (Q14973 1-349): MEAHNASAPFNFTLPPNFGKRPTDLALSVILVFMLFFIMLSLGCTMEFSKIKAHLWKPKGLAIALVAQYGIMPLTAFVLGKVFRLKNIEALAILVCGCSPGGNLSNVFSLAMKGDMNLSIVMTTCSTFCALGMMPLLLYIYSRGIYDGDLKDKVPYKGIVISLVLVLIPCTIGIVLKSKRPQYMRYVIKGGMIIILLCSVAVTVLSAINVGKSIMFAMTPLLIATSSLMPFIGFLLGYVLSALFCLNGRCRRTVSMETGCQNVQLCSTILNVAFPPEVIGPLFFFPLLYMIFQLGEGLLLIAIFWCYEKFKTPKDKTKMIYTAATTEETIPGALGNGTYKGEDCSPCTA
Put plainly: [3H]-TCA uptake assay (NTCP inhibition). The following applies: IC50, given as a range, marked * (asterisk not explained). Type of assay: cell-based. Put shortly: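 PTH and HepG2-NTCP cells kept 24 h in PMM to induce NTCP, then exposed 2 h to test compounds or DMSO. Uptake of 1 μM [3H]-taurocholate in Na+ Ringer's buffer (145 mM Na) ran 15 min at 37° C. Cells washed, lysed in 1% Triton X-100, and radioactivity counted by liquid scintillation.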
As usually defined, the IC50 is the concentration needed to halve the response being measured. The low end stands for higher potency, the high end for lower potency. The molecule `CCC1NC(=O)C(C2OC(Sc3cc(Cl)cc(OCc4ccccc4)c3)CC2C)N(C)C(=O)C(C(C)C)N(C)C(=O)C(CC(C)C)N(C)C(=O)C(CC(C)C)N(C)C(=O)C(C)NC(=O)C(C)NC(=O)C(CC(C)C)N(C)C(=O)C(C(C)C)NC(=O)C(CC(C)C)N(C)C(=O)CN(C)C1=O` (stereo not drawn) [Compound 63] yielded an IC50 of 1 to 100 µM.
`CCC1NC(=O)C(C2OC(Oc3ccc(NC(C)=O)cc3)CC2C)N(C)C(=O)C(C(C)C)N(C)C(=O)C(CC(C)C)N(C)C(=O)C(CC(C)C)N(C)C(=O)C(C)NC(=O)C(C)NC(=O)C(CC(C)C)N(C)C(=O)C(C(C)C)NC(=O)C(CC(C)C)N(C)C(=O)CN(C)C1=O` (stereo not drawn) [Compound 4A-o] gave an IC50 of 1 to 100 µM.
`CCC1NC(=O)C(C2OC(Oc3cccc(OCc4ccccn4)c3)CC2C)N(C)C(=O)C(C(C)C)N(C)C(=O)C(CC(C)C)N(C)C(=O)C(CC(C)C)N(C)C(=O)C(C)NC(=O)C(C)NC(=O)C(CC(C)C)N(C)C(=O)C(C(C)C)NC(=O)C(CC(C)C)N(C)C(=O)CN(C)C1=O` (stereo not drawn) [Compound 52A-o] displayed an IC50 of 1 to 100 µM.
`CCC1NC(=O)C(C2OC(Oc3ccc(Cl)c(OC)c3)CC2C)N(C)C(=O)C(C(C)C)N(C)C(=O)C(CC(C)C)N(C)C(=O)C(CC(C)C)N(C)C(=O)C(C)NC(=O)C(C)NC(=O)C(CC(C)C)N(C)C(=O)C(C(C)C)NC(=O)C(CC(C)C)N(C)C(=O)CN(C)C1=O` (stereo not drawn) [Compound 40A-o] registered an IC50 of 1 to 100 µM.
In turn, `CCC1NC(=O)C(C2OC(SCc3cccc(N4CCOCC4)c3)CC2C)N(C)C(=O)C(C(C)C)N(C)C(=O)C(CC(C)C)N(C)C(=O)C(CC(C)C)N(C)C(=O)C(C)NC(=O)C(C)NC(=O)C(CC(C)C)N(C)C(=O)C(C(C)C)NC(=O)C(CC(C)C)N(C)C(=O)CN(C)C1=O` (stereo not drawn) [Compound 95-s] yielded an IC50 of 1 to 100 µM.
In turn, `CCC1NC(=O)C(C2OC(Sc3cc(Cl)cc(OCC4CCOCC4)c3)CC2C)N(C)C(=O)C(C(C)C)N(C)C(=O)C(CC(C)C)N(C)C(=O)C(CC(C)C)N(C)C(=O)C(C)NC(=O)C(C)NC(=O)C(CC(C)C)N(C)C(=O)C(C(C)C)NC(=O)C(CC(C)C)N(C)C(=O)CN(C)C1=O` (stereo not drawn) [Compound 67] returned an IC50 of 1 to 100 µM.
The same measure, in the same setting: the same measure for `CCC1NC(=O)C(C2OC(SCc3cc(Cl)c(F)cc3Cl)CC2C)N(C)C(=O)C(C(C)C)N(C)C(=O)C(CC(C)C)N(C)C(=O)C(CC(C)C)N(C)C(=O)C(C)NC(=O)C(C)NC(=O)C(CC(C)C)N(C)C(=O)C(C(C)C)NC(=O)C(CC(C)C)N(C)C(=O)CN(C)C1=O` (stereo not drawn) [Compound 103-s]: 1 to 100 µM; for `CCC1NC(=O)C(C2OC(Oc3cccc(NC)c3)CC2C)N(C)C(=O)C(C(C)C)N(C)C(=O)C(CC(C)C)N(C)C(=O)C(CC(C)C)N(C)C(=O)C(C)NC(=O)C(C)NC(=O)C(CC(C)C)N(C)C(=O)C(C(C)C)NC(=O)C(CC(C)C)N(C)C(=O)CN(C)C1=O` (stereo not drawn) [Compound 47A-o]: 1 to 100 µM.
Still for that read-out and setting: the same measure for `CCC1NC(=O)C(C2OC(Oc3cccc(OC)c3)CC2C)N(C)C(=O)C(C(C)C)N(C)C(=O)C(CC(C)C)N(C)C(=O)C(CC(C)C)N(C)C(=O)C(C)NC(=O)C(C)NC(=O)C(CC(C)C)N(C)C(=O)C(C(C)C)NC(=O)C(CC(C)C)N(C)C(=O)CN(C)C1=O` (stereo not drawn) [Compound 28A-o]: 1 to 100 µM.

Staying with this assay, now noted: given as a range, marked * (asterisk not explained).
As for `CCC1NC(=O)C(C2OC(Oc3ccc(OC)c(OCc4ccccc4)c3)CC2C)N(C)C(=O)C(C(C)C)N(C)C(=O)C(CC(C)C)N(C)C(=O)C(CC(C)C)N(C)C(=O)C(C)NC(=O)C(C)NC(=O)C(CC(C)C)N(C)C(=O)C(C(C)C)NC(=O)C(CC(C)C)N(C)C(=O)CN(C)C1=O` (stereo not drawn) [Compound 64-o], the IC50 was 1 to 100 µM.
As to `CCC1NC(=O)C(C2OC(Oc3cc(OC)cc(OCc4ccccc4)c3)CC2C)N(C)C(=O)C(C(C)C)N(C)C(=O)C(CC(C)C)N(C)C(=O)C(CC(C)C)N(C)C(=O)C(C)NC(=O)C(C)NC(=O)C(CC(C)C)N(C)C(=O)C(C(C)C)NC(=O)C(CC(C)C)N(C)C(=O)CN(C)C1=O` (stereo not drawn) [Compound 65-o], the IC50 was in the range of 1 to 100 µM.
`CCC1NC(=O)C(C2OC(Oc3cccc(OCc4ccc(F)cc4Cl)c3)CC2C)N(C)C(=O)C(C(C)C)N(C)C(=O)C(CC(C)C)N(C)C(=O)C(CC(C)C)N(C)C(=O)C(C)NC(=O)C(C)NC(=O)C(CC(C)C)N(C)C(=O)C(C(C)C)NC(=O)C(CC(C)C)N(C)C(=O)CN(C)C1=O` (stereo not drawn) [Compound 23A-o] had an IC50 of 1 to 100 µM.
Same read-out and setting: to `CCC1NC(=O)C(C2OC(Oc3cccc(OCc4ccc5c(c4)OCO5)c3)CC2C)N(C)C(=O)C(C(C)C)N(C)C(=O)C(CC(C)C)N(C)C(=O)C(CC(C)C)N(C)C(=O)C(C)NC(=O)C(C)NC(=O)C(CC(C)C)N(C)C(=O)C(C(C)C)NC(=O)C(CC(C)C)N(C)C(=O)CN(C)C1=O` (stereo not drawn) [Compound 18A-o] belongs 1 to 100 µM; to `CCC1NC(=O)C(C2OC(Sc3ccc(OC)c(OCc4ccccc4)c3)CC2C)N(C)C(=O)C(C(C)C)N(C)C(=O)C(CC(C)C)N(C)C(=O)C(CC(C)C)N(C)C(=O)C(C)NC(=O)C(C)NC(=O)C(CC(C)C)N(C)C(=O)C(C(C)C)NC(=O)C(CC(C)C)N(C)C(=O)CN(C)C1=O` (stereo not drawn) [Compound 64], 1 to 100 µM.

The assay is the same for the next values; noted with them: given as a range; assay not given.
As for `CCCCc1ccc(SC2CC(C)C(C3C(=O)NC(CC)C(=O)N(C)CC(=O)N(C)C(CC(C)C)C(=O)NC(C(C)C)C(=O)N(C)C(CC(C)C)C(=O)NC(C)C(=O)NC(C)C(=O)N(C)C(CC(C)C)C(=O)N(C)C(CC(C)C)C(=O)N(C)C(C(C)C)C(=O)N3C)O2)cc1` [Compound 8A, [2-((2R,3R)-5-(4-butylphenylthio)-3-methyltetrahydrofuran-2-yl)-2-(methylamino)acetic acid]^1-cyclosporin A], the IC50 was in the range of 0.001 to 1 µM.
Consider `CCC1NC(=O)C(C2OC(Oc3cccc(OCc4ccccc4)c3)CC2C)N(C)C(=O)C(C(C)C)N(C)C(=O)C(CC(C)C)N(C)C(=O)C(CC(C)C)N(C)C(=O)C(C)NC(=O)C(C)NC(=O)C(CC(C)C)N(C)C(=O)C(C(C)C)NC(=O)C(CC(C)C)N(C)C(=O)CN(C)C1=O` (single isomer, unassigned) [Compound 12A-o], for which the 50% inhibitory concentration (IC50) lay within 0.001 to 1 µM.
Molecule `CCC1NC(=O)C(C2OC(OCc3cc(F)c(Cl)cc3Cl)CC2C)N(C)C(=O)C(C(C)C)N(C)C(=O)C(CC(C)C)N(C)C(=O)C(CC(C)C)N(C)C(=O)C(C)NC(=O)C(C)NC(=O)C(CC(C)C)N(C)C(=O)C(C(C)C)NC(=O)C(CC(C)C)N(C)C(=O)CN(C)C1=O` (single isomer, unassigned) [Compound 101B] yielded an IC50 of 0.001 to 1 µM.
Molecule `CCOc1ccc(SC2CC(C)C(C3C(=O)NC(CC)C(=O)N(C)CC(=O)N(C)C(CC(C)C)C(=O)NC(C(C)C)C(=O)N(C)C(CC(C)C)C(=O)NC(C)C(=O)NC(C)C(=O)N(C)C(CC(C)C)C(=O)N(C)C(CC(C)C)C(=O)N(C)C(C(C)C)C(=O)N3C)O2)cc1` [Compound 27A, [2-((2R,3R)-5-(4-ethoxyphenylthio)-3-methyltetrahydrofuran-2-yl)-2-(methylamino)acetic acid]^1-cyclosporin A] came in with an IC50 of 0.001 to 1 µM.
The molecule `CCC1NC(=O)C(C2OC(OCc3ccc(Cl)cc3Cl)CC2C)N(C)C(=O)C(C(C)C)N(C)C(=O)C(CC(C)C)N(C)C(=O)C(CC(C)C)N(C)C(=O)C(C)NC(=O)C(C)NC(=O)C(CC(C)C)N(C)C(=O)C(C(C)C)NC(=O)C(CC(C)C)N(C)C(=O)CN(C)C1=O` (single isomer, unassigned) [Compound 89A] came in with an IC50 of 0.001 to 1 µM.
For `CCCN(C)c1cccc(SC2CC(C)C(C3C(=O)NC(CC)C(=O)N(C)CC(=O)N(C)C(CC(C)C)C(=O)NC(C(C)C)C(=O)N(C)C(CC(C)C)C(=O)NC(C)C(=O)NC(C)C(=O)N(C)C(CC(C)C)C(=O)N(C)C(CC(C)C)C(=O)N(C)C(C(C)C)C(=O)N3C)O2)c1` [Compound 50A, [2-((2R,3R)-3-methyl-5-(3-(methyl(propyl)amino)phenylthio)tetrahydrofuran-2-yl)-2-(methylamino)acetic acid]^1-cyclosporin A], the half-inhibitory concentration (IC50) fell in the range of 0.001 to 1 µM.
Regarding `CCC1NC(=O)C(C2OC(Sc3cccc(OCc4ccc(CN(C)C)cc4)c3)CC2C)N(C)C(=O)C(C(C)C)N(C)C(=O)C(CC(C)C)N(C)C(=O)C(CC(C)C)N(C)C(=O)C(C)NC(=O)C(C)NC(=O)C(CC(C)C)N(C)C(=O)C(C(C)C)NC(=O)C(CC(C)C)N(C)C(=O)CN(C)C1=O` [Compound 13A, [2-((2R,3R)-5-(3-(4-((dimethylamino)methyl)benzyloxy)phenylthio)-3-methyltetrahydrofuran-2-yl)-2-(methylamino)acetic acid]^1-cyclosporin A], the 50% inhibitory concentration (IC50) was 0.001 to 1 µM.
Still for that read-out and setting: to `CCC1NC(=O)C(C2OC(OCc3cccc(Cl)c3OC)CC2C)N(C)C(=O)C(C(C)C)N(C)C(=O)C(CC(C)C)N(C)C(=O)C(CC(C)C)N(C)C(=O)C(C)NC(=O)C(C)NC(=O)C(CC(C)C)N(C)C(=O)C(C(C)C)NC(=O)C(CC(C)C)N(C)C(=O)CN(C)C1=O` (single isomer, unassigned) [Compound 88B] belongs 0.001 to 1 µM; to `CCCOc1cccc(SC2CC(C)C(C3C(=O)NC(CC)C(=O)N(C)CC(=O)N(C)C(CC(C)C)C(=O)NC(C(C)C)C(=O)N(C)C(CC(C)C)C(=O)NC(C)C(=O)NC(C)C(=O)N(C)C(CC(C)C)C(=O)N(C)C(CC(C)C)C(=O)N(C)C(C(C)C)C(=O)N3C)O2)c1` [Compound 31A, [2-((2R,3R)-3-methyl-5-(3-propoxyphenylthio)tetrahydrofuran-2-yl)-2-(methylamino)acetic acid]^1-cyclosporin A], 0.001 to 1 µM.
In turn, `CCC1NC(=O)C(C2OC(OC(C)c3ccc(Cl)c(Cl)c3)CC2C)N(C)C(=O)C(C(C)C)N(C)C(=O)C(CC(C)C)N(C)C(=O)C(CC(C)C)N(C)C(=O)C(C)NC(=O)C(C)NC(=O)C(CC(C)C)N(C)C(=O)C(C(C)C)NC(=O)C(CC(C)C)N(C)C(=O)CN(C)C1=O` (single isomer, unassigned) [Compound 96A] yielded an IC50 of 0.001 to 1 µM.

The values are drawn from patent US10961231B2, “NTCP inhibitors” (National Institute of Biological Sciences, Beijing, priority 2018, dated 2021).
